EC50 data for 24 compounds are collected here from patent publication US9409866B2, “Pyridine-2-amides useful as CB2 agonists” (Hoffmann-La Roche Inc., priority 2012, dated 2016).

Read-outs that look alike come from different tables or passages of the source. Bounds are passed on as bounds.

In one assay the target is human CB1 receptors (Homo sapiens (Human), UniProt P21554). The experiment in a line: functional cAMP assay, CHO cells expressing human CB1. It counts as cell-based. To be noted: functional cAMP assay, CHO cells expressing human CB1. The method in brief: (§1)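 Readout: TR-FRET cAMP detection at 730 and 645 nm with 355 nm excitation, quantified from a standard curve spanning 10 μM to 0.13 nM cAMP. Human CB1- or CB2-expressing CHO cells were exposed to compound for 30 min at 30 °C in KRB buffer containing 1 mM IBMX. EC50 derived.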
human CB1 receptors, sequence (P21554 whole entry): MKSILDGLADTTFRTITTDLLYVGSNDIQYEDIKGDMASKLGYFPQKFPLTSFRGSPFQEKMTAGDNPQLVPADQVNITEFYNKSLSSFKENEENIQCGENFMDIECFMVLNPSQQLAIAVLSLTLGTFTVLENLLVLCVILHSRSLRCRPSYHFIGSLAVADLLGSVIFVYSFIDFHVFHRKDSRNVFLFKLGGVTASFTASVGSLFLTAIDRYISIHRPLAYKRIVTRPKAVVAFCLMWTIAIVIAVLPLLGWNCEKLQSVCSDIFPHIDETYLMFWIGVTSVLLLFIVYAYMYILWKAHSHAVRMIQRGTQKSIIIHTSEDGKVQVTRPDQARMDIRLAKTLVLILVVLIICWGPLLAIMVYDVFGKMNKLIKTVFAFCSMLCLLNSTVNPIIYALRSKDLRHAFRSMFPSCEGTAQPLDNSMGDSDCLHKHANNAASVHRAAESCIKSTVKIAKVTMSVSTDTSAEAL
(In general: cAMP levels reflect the balance of adenylyl cyclase and phosphodiesterase activity.)

In another assay the target is human CB2 receptors (Homo sapiens (Human), UniProt P34972). Description: functional cAMP assay, CHO cells expressing human CB2. It counts as cell-based. The essentials:
as §1

human CB2 receptors, sequence (P34972 whole entry): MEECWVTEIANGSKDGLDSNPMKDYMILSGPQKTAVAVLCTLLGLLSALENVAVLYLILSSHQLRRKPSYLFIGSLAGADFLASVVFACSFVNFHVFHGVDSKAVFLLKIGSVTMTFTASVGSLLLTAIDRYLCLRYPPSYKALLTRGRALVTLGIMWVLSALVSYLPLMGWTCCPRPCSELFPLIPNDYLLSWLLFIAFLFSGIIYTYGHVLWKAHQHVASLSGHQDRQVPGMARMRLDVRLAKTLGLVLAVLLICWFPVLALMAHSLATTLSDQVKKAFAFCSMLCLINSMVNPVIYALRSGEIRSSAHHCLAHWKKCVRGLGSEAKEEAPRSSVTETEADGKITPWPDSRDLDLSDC

Take `Cc1nc([C@@](C)(NC(=O)c2cc(OCC(F)(F)F)c(Cl)cn2)C2CC2)no1` (single isomer, unassigned; enantiomer b) [Example 75, 5-Chloro-4-(2,2,2-trifluoro-ethoxy)-pyridine-2-carboxylic acid [1-cyclopropyl-1-(5-methyl-[1,2,4]oxadiazol-3-yl)-ethyl]-amide (enantiomer B)]: the EC50 is more than 10 µM at human CB1 receptors (Human CB1 EC50 (uM)) and 0.11 µM at human CB2 receptors (Human CB2 EC50 (uM)).
On to `Cc1nc(C(C)(NC(=O)c2cc(O[C@@H](C)C(F)(F)F)c(C3CC3)cn2)C2CC2)no1` (single isomer, unassigned; epimer a) [Example 68], for which the figures for the EC50 at human CB1 receptors (read-out: Human CB1 EC50) and at human CB2 receptors (read-out: Human CB2 EC50) were more than 10 µM and 0.00395 µM, respectively.
In the case of `Cc1nc(C(C)(NC(=O)c2cc(O[C@H](C)C(F)(F)F)c(C3CC3)cn2)C2CC2)no1` (single isomer, unassigned; epimer a) [Example 72], the 50% effective concentration (EC50) amounted to 0.19 µM at human CB1 receptors (read-out: Human CB1 EC50) and 0.0027 µM on human CB2 receptors (read-out: Human CB2 EC50).
As to `Cc1nc(C(C)(NC(=O)c2cc(O[C@@H](C)C(F)(F)F)c(C3CC3)cn2)C2CC2)no1` (single isomer, unassigned; epimer b) [Example 69], the EC50 was 0.015 µM at human CB1 receptors (read-out: Human CB1 EC50) and 0.00025 µM on human CB2 receptors (read-out: Human CB2 EC50).
For `Cc1nc(C(C)(NC(=O)c2cc(O[C@H](C)C(F)(F)F)c(C3CC3)cn2)C2CC2)no1` (single isomer, unassigned; epimer b) [Example 73], in that order: 0.017 µM and 0.00025 µM.
The like results for `COC(=O)C(C)(C)NC(=O)c1cc(I)c(Cl)cn1` [Example 1, 2-[(5-Chloro-4-iodo-pyridine-2-carbonyl)-amino]-2-methyl-propionic acid methyl ester] were, in that order, more than 10 µM and 0.0356 µM.
For `CC(C)(CO)NC(=O)c1cc(-c2cccc(Cl)c2)c(Cl)cn1` [Example 2, 5-Chloro-4-(3-chlorophenyl)-pyridine-2-carboxylic acid (2-hydroxy-1,1-dimethyl-ethyl)-amide], the EC50 is more than 10 µM on human CB1 receptors (read-out: Human CB1 EC50) and 0.0963 µM at human CB2 receptors (read-out: Human CB2 EC50).
Turning to `CC(C)C[C@H](NC(=O)c1cc(-c2cccc(Cl)c2)c(Cl)cn1)C(N)=O` [Example 3, 5-Chloro-4-(3-chloro-phenyl)-pyridine-2-carboxylic acid ((S)-1-carbamoyl-3-methyl-butyl)-amide], the EC50 is more than 10 µM at human CB1 receptors (read-out: Human CB1 EC50) and 0.466 µM at human CB2 receptors (read-out: Human CB2 EC50).
For the compound `NC(=O)[C@H](CC1CC1)NC(=O)c1cc(OCC2CC2)c(Cl)cn1` [Example 4, 5-Chloro-4-cyclopropylmethoxy-pyridine-2-carboxylic acid ((S)-1-carbamoyl-2-cyclopropyl-ethyl)-amide], the 50% effective concentration (EC50) is more than 10 µM on human CB1 receptors (read-out: Human CB1 EC50) and 0.115 µM on human CB2 receptors (read-out: Human CB2 EC50).
The like results for `O=C(NCC1(O)CCCCC1)c1cc(OCC2CC2)c(Cl)cn1` [Example 5, 5-Chloro-4-cyclopropylmethoxy-pyridine-2-carboxylic acid (1-hydroxy-cyclohexylmethyl)-amide] were, in that order, more than 10 µM and 0.107 µM.
As to `O=C(NC1(CO)CCCC1)c1cc(OCC2CC2)c(Cl)cn1` [Example 6, 5-Chloro-4-cyclopropylmethoxy-pyridine-2-carboxylic acid (1-hydroxymethyl-cyclopentyl)-amide], the EC50 is more than 10 µM at human CB1 receptors (read-out: Human CB1 EC50) and 0.0524 µM at human CB2 receptors (read-out: Human CB2 EC50).
For `CC(C)C[C@@H](CO)NC(=O)c1cc(OCC2CC2)c(Cl)cn1` [Example 7, 5-Chloro-4-cyclopropylmethoxy-pyridine-2-carboxylic acid ((S)-1-hydroxymethyl-3-methyl-butyl)-amide], in that order: more than 10 µM and 0.0523 µM.
With `CC(C)(C#N)NC(=O)c1cc(OCC2CC2)c(Cl)cn1` [Example 8, 5-Chloro-4-cyclopropylmethoxy-pyridine-2-carboxylic acid (cyano-dimethyl-methyl)-amide], the EC50 at human CB1 receptors (read-out: Human CB1 EC50) is more than 10 µM; on human CB2 receptors (read-out: Human CB2 EC50) it was 0.159 µM.
For `CC(C)C[C@H](NC(=O)c1cc(OCC2CC2)c(Br)cn1)C(N)=O` [Example 9, 5-Bromo-4-cyclopropylmethoxy-pyridine-2-carboxylic acid ((S)-1-carbamoyl-3-methyl-butyl)-amide], the EC50 at human CB1 receptors (read-out: Human CB1 EC50) is more than 10 µM; at human CB2 receptors (read-out: Human CB2 EC50), 0.0329 µM.
As to `CC(C)[C@@](C)(CO)NC(=O)c1cc(OCC2CC2)c(Cl)cn1` [Example 10, 5-Chloro-4-cyclopropylmethoxy-pyridine-2-carboxylic acid ((S)-1-hydroxymethyl-1,2-dimethyl-propyl)-amide], the values for the EC50 at human CB1 receptors (read-out: Human CB1 EC50) and on human CB2 receptors (read-out: Human CB2 EC50) were more than 10 µM and 0.0119 µM, respectively.
Turning to `CC(C)[C@H](CO)NC(=O)c1cc(OCC2CC2)c(Cl)cn1` [Example 11, 5-Chloro-4-cyclopropylmethoxy-pyridine-2-carboxylic acid ((R)-1-hydroxymethyl-2-methyl-propyl)-amide], the EC50 on human CB1 receptors (read-out: Human CB1 EC50) was more than 10 µM; on human CB2 receptors (read-out: Human CB2 EC50), 0.0554 µM.
Regarding `CC(C)[C@](C)(CO)NC(=O)c1cc(OCC2CCC2)c(Cl)cn1` [Example 12, 5-Chloro-4-cyclobutylmethoxy-pyridine-2-carboxylic acid ((R)-1-hydroxymethyl-1,2-dimethyl-propyl)-amide], the results for the concentration giving a half-maximal response (EC50) at human CB1 receptors (read-out: Human CB1 EC50) and at human CB2 receptors (read-out: Human CB2 EC50) were more than 10 µM and 0.0092 µM, respectively.
Take `CCC[C@H](CO)NC(=O)c1cc(OCC2CC2)c(Cl)cn1` [Example 13, 5-Chloro-4-cyclopropylmethoxy-pyridine-2-carboxylic acid ((R)-1-hydroxymethyl-butyl)-amide]: the EC50 at human CB1 receptors (read-out: Human CB1 EC50) was more than 10 µM; on human CB2 receptors (read-out: Human CB2 EC50), 0.146 µM.
With `CC(C)[C@](C)(CO)NC(=O)c1cc(OCC2CC2)c(Cl)cn1` [Example 14, 5-Chloro-4-cyclopropylmethoxy-pyridine-2-carboxylic acid ((R)-1-hydroxymethyl-1,2-dimethyl-propyl)-amide], the concentration for a half-maximal effect (EC50) at human CB1 receptors (read-out: Human CB1 EC50) worked out at 6.98 µM; at human CB2 receptors (read-out: Human CB2 EC50) it was 0.0128 µM.
For `CC(C)[C@](C)(CO)NC(=O)c1cc(Cc2ccc(F)cc2)c(Cl)cn1` [Example 15, 5-Chloro-4-(4-fluoro-benzyl)-pyridine-2-carboxylic acid ((R)-1-hydroxymethyl-1,2-dimethyl-propyl)-amide], in that order: more than 10 µM and 0.0058 µM.
On to `O=C(N[C@H](c1ccccn1)C(F)(F)F)c1cc(OCC2CC2)c(Cl)cn1` [Example 16, (+)-5-Chloro-4-cyclopropylmethoxy-pyridine-2-carboxylic acid (2,2,2-trifluoro-1-pyridin-2-yl-ethyl)-amide], for which the results for the 50% effective concentration (EC50) at human CB1 receptors (read-out: Human CB1 EC50) and on human CB2 receptors (read-out: Human CB2 EC50) were 0.815 µM and 0.0031 µM, respectively.
In the case of `CC(C)(CO)CNC(=O)c1cc(OCC2CC2)c(Cl)cn1` [Example 17, 5-Chloro-4-cyclopropylmethoxy-pyridine-2-carboxylic acid (3-hydroxy-2,2-dimethyl-propyl)-amide], the figures for the 50% effective concentration (EC50) on human CB1 receptors (read-out: Human CB1 EC50) and on human CB2 receptors (read-out: Human CB2 EC50) were more than 10 µM and 0.0473 µM, respectively.
In the case of `CC(C)C(CCO)NC(=O)c1cc(OCC2CC2)c(Cl)cn1` (stereo not drawn) [Example 18, 5-Chloro-4-cyclopropylmethoxy-pyridine-2-carboxylic acid [1-(2-hydroxy-ethyl)-2-methyl-propyl]-amide], the EC50 at human CB1 receptors (read-out: Human CB1 EC50) is more than 10 µM; at human CB2 receptors (read-out: Human CB2 EC50), 0.149 µM.
The like results for `O=C(NC(CCO)C1CC1)c1cc(OCC2CC2)c(Cl)cn1` (stereo not drawn) [Example 19, 5-Chloro-4-cyclopropylmethoxy-pyridine-2-carboxylic acid (1-cyclopropyl-3-hydroxy-propyl)-amide] were, in that order, more than 10 µM and 0.0615 µM.

The term EC50 denotes the concentration needed to bring the measured effect to its halfway point.
